Measured values taken from PMC7589200, “Identification of Putative Non-Substrate-Based XT-I Inhibitors by Natural Product Library Screening” (Biomolecules, 2020).
Like-named read-outs stand apart in the source and are kept apart here.

Legend:
XT-I [1] = biological target: T1, XT-I (Homo sapiens, UniProt Q86Y38); assay: Enzyme and inhibition kinetics (mode of inhibition), UPLC/ESI-MS/MS XT-I assay; assay type: biochemical; conditions: inhibitor at IC50 concentration; for Vmax: Figure 2, modified acceptor peptide varied, 15 μM UDP-D-xylose, Michaelis-Menten; for Vmax [AU]: Table S2, Michaelis-Menten plot, nonlinear regression
T1 sequence (Q86Y38 260-959 limits assumed): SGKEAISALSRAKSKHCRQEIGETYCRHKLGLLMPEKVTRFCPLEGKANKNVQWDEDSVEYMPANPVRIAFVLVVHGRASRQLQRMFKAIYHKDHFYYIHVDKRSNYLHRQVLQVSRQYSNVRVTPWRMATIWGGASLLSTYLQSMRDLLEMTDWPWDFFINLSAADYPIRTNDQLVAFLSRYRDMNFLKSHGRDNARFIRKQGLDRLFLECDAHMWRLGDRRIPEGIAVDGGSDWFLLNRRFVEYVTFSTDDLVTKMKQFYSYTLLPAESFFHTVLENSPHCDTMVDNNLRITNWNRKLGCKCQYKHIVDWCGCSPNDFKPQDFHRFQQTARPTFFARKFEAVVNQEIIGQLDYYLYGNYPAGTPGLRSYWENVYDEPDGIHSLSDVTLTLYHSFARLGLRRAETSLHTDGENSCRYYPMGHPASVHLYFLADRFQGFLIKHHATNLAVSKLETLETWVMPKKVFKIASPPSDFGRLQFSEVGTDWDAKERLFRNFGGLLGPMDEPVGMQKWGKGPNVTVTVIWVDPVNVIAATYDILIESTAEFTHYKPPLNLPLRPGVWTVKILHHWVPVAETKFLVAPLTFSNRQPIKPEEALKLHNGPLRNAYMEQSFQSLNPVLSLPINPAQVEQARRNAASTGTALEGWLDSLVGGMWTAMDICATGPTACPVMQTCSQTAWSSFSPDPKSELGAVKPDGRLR
From the text: The measurement of relative XT-I activity among different samples is based on the XT-catalyzed incorporation of xylose from UDP-D-xylose on a modified bikunin-derived peptide after a fixed reaction time. The assay was originally developed for the determination of XT activity in human- or cell-culture-derived samples [13] by ultra-performance liquid chromatography/electrospray ionization tandem mass spectrometry (UPLC/ESI-MS/MS). The UPLC/ESI-MS/MS XT assay was recently modified toward a XT-I selective activity determination in human serum and cell culture samples (unpublished data). The relative intensities of the xylosylated peptide species abundance obtained with the respective m/z ratio were directly proportional to the relative XT-I activity of the sample. The XT-I activity determined is expressed in arbitrary units and normalized to the total protein content per 1 mL sample volume in cell culture approaches. A calibrator probe with a fixed amount of recombinant XT-I enzyme was included in every UPLC-MS/MS XT-I assay for assay comparability across multiple runs. The assay reaction mixture (50 μL) contained 50% (v/v) of the respective XT-I enzyme solution and 50% (v/v) reaction buffer. The final XT-I assay contained 25 mM MES buffer (pH 6.5), 25 mM KF buffer, 5 mM MnCl2, 5 mM MgCl2, 7.0 μM modified acceptor peptide and 30 μM UDP-D-xylose. The sample preparation for UPLC/ESI-MS/MS was performed according to [13]. In brief, after sample incubation at 37 °C for 24 h, the reaction was stopped by heating at 99 °C for 10 min. After centrifugation (10,000× g, 10 min) the supernatant was diluted fivefold with UPLC water for analysis. All cell-based XT-I assays were carried out in three biological and three technical replicates per donor-derived primary cell culture, while the XT-I activity determination for screening or kinetic purposes was carried out at least in technical duplicates.
The mode of inhibition (MOI) study was performed by evaluating the inhibitors’ impact on the enzyme parameters’ Michaelis constant Km and the maximum activity Vmax. In order to determine the enzyme and inhibition kinetics, XT-I activity determination of the recombinant XT-I protein solution with and without inhibitor supplementation was carried out in the presence of different acceptor peptide concentrations ranging from 1 to 30 μM. […] The Km and Vmax were determined with the Michaelis–Menten equation and nonlinear regression analysis, while the slope and Y-intersection values were determined by a Lineweaver–Burk plot and simple linear regression using GraphPad Prism 8.0 (GraphPad Software, La Jolla, United States) software.

XT-I [2] = biological target: T1, XT-I; assay: IC50 determination, UPLC/ESI-MS/MS XT-I assay; assay type: biochemical
From the text: The measurement of relative XT-I activity among different samples is based on the XT-catalyzed incorporation of xylose from UDP-D-xylose on a modified bikunin-derived peptide after a fixed reaction time. The assay was originally developed for the determination of XT activity in human- or cell-culture-derived samples [13] by ultra-performance liquid chromatography/electrospray ionization tandem mass spectrometry (UPLC/ESI-MS/MS). The UPLC/ESI-MS/MS XT assay was recently modified toward a XT-I selective activity determination in human serum and cell culture samples (unpublished data). The relative intensities of the xylosylated peptide species abundance obtained with the respective m/z ratio were directly proportional to the relative XT-I activity of the sample. The XT-I activity determined is expressed in arbitrary units and normalized to the total protein content per 1 mL sample volume in cell culture approaches. A calibrator probe with a fixed amount of recombinant XT-I enzyme was included in every UPLC-MS/MS XT-I assay for assay comparability across multiple runs. […]
Inhibitor candidates from the NP compound library were screened using the UPLC/ESI-MS/MS XT-I assay with recombinant XT-I protein solution from pgsA-6HisXT1-K4 cells. […] The XT-I activity of the protein-inhibitor mixtures were determined by UPLC/ESI-MS/MS as described above. […]

CC1=C(O)C(=O)C=C2C1=CC=C1[C@@]2(C)CC[C@@]2(C)[C@@H]3C[C@](C)(C(=O)O)CC[C@]3(C)CC[C@]12C [Compound 68, Celastrol]
Vmax (XT-I [1]): 12 ± 0.6 ·10^3 AU | Vmax [AU] (XT-I [1]): 11826 ± 551 AU | mode of inhibition (MOI) regarding the acceptor peptide (XT-I [1]): competitive | IC50 (XT-I [2]): 11 ± 1 µM

C[C@@H]1[C@H](O)[C@@H](C)/C=C/C=C/C=C/C=C/C=C/C=C/C=C/[C@H](O[C@@H]2O[C@H](C)[C@@H](O)[C@H](N)[C@@H]2O)C[C@@H]2O[C@](O)(C[C@@H](O)C[C@@H](O)[C@H](O)CC[C@@H](O)C[C@@H](O)CC(=O)O[C@H]1C)C[C@H](O)[C@H]2C(=O)O [Compound 17, Amphotericin B]
Vmax (XT-I [1]): 10 ± 0.4 ·10^3 AU | Vmax [AU] (XT-I [1]): 10031 ± 388 AU | mode of inhibition (MOI) regarding the acceptor peptide (XT-I [1]): uncompetitive | IC50 (XT-I [2]; 15 μM UDP-D-xylose, 10.5 μM acceptor peptide, 1 h preincubation at RT, read-out: IC50): 12.2 ± 1 µM
